Where “and” joins values, the source holds several entries; their conditions need not be identical. Identical values can stand only once. Like-named read-outs stand apart in the source and are kept apart here.
Assays:
[1] = snar bond
[2] = target: T1, CFTR-mediated chloride transport (Homo sapiens, UniProt P13569); assay: Corrector Assay A - membrane potential dye assay (enteroid cells); details: for Corrector Assay A % activity: % of chloride transport of triple combination control (1 μM (14S)-dispiro macrocycle + 3 μM tezacaftor + 300 nM ivacaftor); for EC50: read-out: Corrector Assay A EC50, human intestinal enteroid cells, 18-24 h incubation, acute 10 μM forskolin + 300 nM ivacaftor
Description: Base medium (ADF+++) consisted of Advanced DMEM/Ham's F12, 2 mM Glutamax, 10 mM HEPES, 1 μg/ml penicillin/streptomycin.
Intestinal enteroid maintenance medium (IEMM) consisted of ADF+++, 1×B27 supplement, 1×N2 supplement, 1.25 mM N-acetyl cysteine, 10 mM Nicotinamide, 50 ng/mL hEGF, 10 nM Gastrin, 1 μg/mL hR-spondin-1, 100 ng/mL hNoggin, TGF-b type 1 inhibitor A-83-01, 100 μg/mL Primocin, 10 μM P38 MAPK inhibitor SB202190.
Bath 1 Buffer consisted of 1 mM MgCl2, 160 mM NaCl, 4.5 mM KCl, 10 mM HEPES, 10 mM Glucose, 2 mM CaCl2).
Chloride Free Buffer consisted of 1 mM Magnesium Gluconate, 2 mM Calcium Gluconate, 4.5 mM Potassium Gluconate, 160 mM Sodium Gluconate, 10 mM HEPES, 10 mM Glucose.
Bath 1 Dye Solution consisted of Bath 1 Buffer, 0.04% Pluronic F127, 20 μM Methyl Oxonol, 30 μM CaCCinh-A01, 30 μM Chicago Sky Blue.
Chloride Free Dye Solution consisted of Chloride Free Buffer, 0.04% Pluronic F127, 20 μM Methyl Oxonol, 30 μM CaCCinh-A01, 30 μM Chicago Sky Blue.
Chloride Free Dye Stimulation Solution consisted of Chloride Free Dye Solution, 10 μM forskolin, 100 μM IBMX, and 300 nM Ivacaftor.
Cells were recovered in cell recovery solution, collected by centrifugation at 650 rpm for 5 min at 4° C., resuspended in TryPLE and incubated for 5 min at 37° C. Cells were then collected by centrifugation at 650 rpm for 5 min at 4° C. and resuspended in IEMM containing 10 μM ROCK inhibitor (RI). The cell suspension was passed through a 40 μm cell strainer and resuspended at 1×10^6 cells/mL in IEMM containing 10 μM RI. Cells were seeded at 5000 cells/well into multi-well plates and incubated for overnight at 37° C., 95% humidity and 5% CO2 prior to assay.
Briefly, cells were washed 5 times in Bath 1 Buffer. Bath 1 Dye Solution was added and the cells were incubated for 25 min at room temperature. Following dye incubation, cells were washed 3 times in Chloride Free Dye Solution. Chloride transport was initiated by addition of Chloride Free Dye Stimulation Solution and the fluorescence signal was read for 15 min. The CFTR-mediated chloride transport for each condition was determined from the AUC of the fluorescence response to acute forskolin and 300 nM N-[2,4-bis(1,1-dimethylethyl)-5-hydroxyphenyl]-1,4-dihydro-4-oxoquinoline-3-carboxamide stimulation. Chloride transport was then expressed as a percentage of the chloride transport following treatment with 1 μM (14S)-8-[3-(2-{Dispiro[2.0.2.1]heptan-7-yl}ethoxy)-1H-pyrazol-1-yl]-12,12-dimethyl-2λ^6-thia-3,9,11,18,23-pentaazatetracyclo[17.3.1.111,14.05,10]tetracosa-1(22),5,7,9,19(23),20-hexaene-2,2,4-trione, 3 μM (R)-1-(2,2-difluorobenzo[d][1,3]dioxol-5-yl)-N-(1-(2,3-dihydroxypropyl)-6-fluoro-2-(1-hydroxy-2-methylpropan-2-yl)-1H-indol-5-yl)cyclopropanecarboxamide and 300 nM acute N-[2,4-bis(1,1-dimethylethyl)-5-hydroxyphenyl]-1,4-dihydro-4-oxoquinoline-3-carboxamide triple combination control (% Activity).

[3] = target: T1, CFTR-mediated chloride transport; assay: Corrector Assay B - membrane potential dye assay (enteroid cells); details: for Corrector Assay B % activity: % of chloride transport of triple combination control (3 μM Compound A + 3 μM tezacaftor + 300 nM ivacaftor); for EC50: read-out: Corrector Assay B EC50, human intestinal enteroid cells, 18-24 h incubation, acute 10 μM forskolin + 300 nM ivacaftor;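 for all read-outs here: methyl oxonol membrane potential fluorescence followed over 15 min after switching to chloride-free buffer with forskolin, 100 µM IBMX and ivacaftor, in presence of CaCC blockers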

## CC(C)(C)OC(=O)N1C[C@@H](CCC(c2ccccc2)n2ccc(S(=O)(=O)NC(=O)c3ccc(C(C)(C)C)nc3Cl)n2)CC1(C)C (stereo partly drawn)
[1]; the molecule shown is the open-chain precursor, 14-membered ring, K2CO3, NMP, 74.5 mM, 140.0 °C, 2 steps
  ring closure, yield after HPLC: 13%

## CC(C)(C)c1ccc2c(n1)N1CC(CC1(C)C)OCCNc1cccc(n1)S(=O)(=O)NC2=O (stereo not drawn)
[1]; from CC(C)(C)OC(=O)N1CC(OCCNc2cccc(S(=O)(=O)NC(=O)c3ccc(C(C)(C)C)nc3F)n2)CC1(C)C, 15-membered ring, K2CO3, NMP, 73.3 mM, 160.0 °C, 2 steps
  ring closure, yield after HPLC: 61%

## CC(C)(C)c1ccc2c(n1)N1CC(CCCOc3cccc(c3)S(=O)(=O)NC2=O)CC1(C)C (stereo not drawn)
[1]; from CC1(C)CC(CCCOc2cccc(S(=O)(=O)NC(=O)c3ccc(C(C)(C)C)nc3F)c2)CN1, 15-membered ring, K2CO3, NMP, 27.5 mM, 150.0 °C, 16.0 h
  ring closure, yield after HPLC: 41%

## CC(C)(C)c1ccc2c(n1)N1CC(CCN(c3ccccc3)C(=O)c3cccc(c3)S(=O)(=O)NC2=O)CC1(C)C (stereo not drawn)
[1]; from CC1(C)CC(CCN(C(=O)c2cccc(S(=O)(=O)NC(=O)c3ccc(C(C)(C)C)nc3Cl)c2)c2ccccc2)CN1, 15-membered ring, K2CO3, then CsF/3A MS, NMP, 24.6 mM, 180.0 °C, 88.0 h
  ring closure, yield after HPLC: 29%

## CC(C)(C)c1ccc2c(n1)N1C[C@@H](CCC(C3=CCN(C(=O)OCc4ccccc4)CC3)Nc3cccc(n3)S(=O)(=O)NC2=O)CC1(C)C (stereo partly drawn)
[1]; from CC1(C)C[C@H](CCC(Nc2cccc(S(=O)(=O)NC(=O)c3ccc(C(C)(C)C)nc3F)n2)C2=CCN(C(=O)OCc3ccccc3)CC2)CN1, 15-membered ring, K2CO3/3A MS, NMP, 29.7 mM, 155.0 °C, 18.0 h, 2 steps
  ring closure, yield after HPLC: 89%

## CC(C)(C)c1ccc2c(n1)N1C[C@@H](CCC(C3CCN(C(=O)OCc4ccccc4)CC3)Nc3cccc(n3)S(=O)(=O)NC2=O)CC1(C)C (stereo partly drawn)
[1]; from CC1(C)C[C@H](CCC(Nc2cccc(S(=O)(=O)NC(=O)c3ccc(C(C)(C)C)nc3F)n2)C2CCN(C(=O)OCc3ccccc3)CC2)CN1, 15-membered ring, K2CO3, NMP, 42.0 mM, 140.0 °C, 16.0 h
  ring closure, yield after HPLC: 58%

## CC(C)(C)c1ccc2c(n1)N1C[C@@H](CCC(CCC(C3CC3)C3CC3)Nc3cccc(n3)S(=O)(=O)NC2=O)CC1(C)C (stereo partly drawn)
[1]; from CC(C)(C)OC(=O)N1C[C@@H](CCC(CCC(C2CC2)C2CC2)Nc2cccc(S(=O)(=O)NC(=O)c3ccc(C(C)(C)C)nc3F)n2)CC1(C)C, 15-membered ring, K2CO3, DMSO, 77.1 mM, 140.0 °C, 2 steps
  ring closure, yield after HPLC: 46%

## CC(C)(C)c1ccc2c(n1)N1C[C@@H](CCC(c3cc(Cl)ccn3)Nc3cccc(n3)S(=O)(=O)NC2=O)CC1(C)C (stereo partly drawn)
[1]; from CC(C)(C)OC(=O)N1C[C@@H](CCC(Nc2cccc(S(=O)(=O)NC(=O)c3ccc(C(C)(C)C)nc3F)n2)c2cc(Cl)ccn2)CC1(C)C, 15-membered ring, K2CO3, NMP, 142.0 mM, 140.0 °C, 2 steps
  ring closure, yield after HPLC: 43%

## CC(C)(C)c1ccc2c(n1)N1C[C@@H](CCC(c3ccc(C(=O)O)cc3)Nc3cccc(n3)S(=O)(=O)NC2=O)CC1(C)C (stereo partly drawn)
[1]; from CC1(C)C[C@H](CCC(Nc2cccc(S(=O)(=O)NC(=O)c3ccc(C(C)(C)C)nc3Cl)n2)c2ccc(C(=O)O)cc2)CN1, 15-membered ring, K2CO3, NMP, 26.5 mM, 165.0 °C, 48.0 h
  ring closure, yield after HPLC: 24%

## CC(C)COc1cc(F)cc(-c2ccc3c(n2)N2C[C@@H](CCC(c4ccccn4)Nc4cccc(n4)S(=O)(=O)NC3=O)CC2(C)C)c1 (stereo partly drawn)
[1]; from CC(C)COc1cc(F)cc(-c2ccc(C(=O)NS(=O)(=O)c3cccc(NC(CC[C@@H]4CN(C(=O)OC(C)(C)C)C(C)(C)C4)c4ccccn4)n3)c(Cl)n2)c1, 15-membered ring, K2CO3, NMP, 38.2 mM, 140.0 °C, 2 steps
  ring closure, yield after HPLC: 18% and 31%

## CC1(C)CC2CC(c3ccccc3)CNc3cccc(n3)S(=O)(=O)NC(=O)c3ccc(-n4ccc(OCCC5(C(F)(F)F)CC5)n4)nc3N1C2 (stereo not drawn)
[1]; from CC(C)(C)OC(=O)N1CC(CC(CNc2cccc(S(=O)(=O)NC(=O)c3ccc(-n4ccc(OCCC5(C(F)(F)F)CC5)n4)nc3Cl)n2)c2ccccc2)CC1(C)C, 15-membered ring, K2CO3/4A MS, DMSO, 44.7 mM, 140.0 °C, 2 steps
  ring closure, yield after HPLC: 60%

## CC1(C)CC2CN1c1nc(-n3ccc(OCCC4(C(F)(F)F)CC4)n3)ccc1C(=O)NS(=O)(=O)c1cccc(n1)NCCC2c1ccccc1 (stereo not drawn)
[1]; from CC1(C)CC(C(CCNc2cccc(S(=O)(=O)NC(=O)c3ccc(-n4ccc(OCCC5(C(F)(F)F)CC5)n4)nc3Cl)n2)c2ccccc2)CN1, 15-membered ring, K2CO3/3A MS, DMSO, 38.4 mM, 155.0 °C, 16.0 h, 2 steps
  ring closure, yield after HPLC: 50%

## CC1(C)C[C@@H]2CCC(c3ccc(C(=O)O)cc3)Nc3cccc(n3)S(=O)(=O)NC(=O)c3ccc(-n4ccc(OCCC5(C(F)(F)F)CC5)n4)nc3N1C2 (stereo partly drawn)
[1]; from CC1(C)C[C@H](CCC(Nc2cccc(S(=O)(=O)NC(=O)c3ccc(-n4ccc(OCCC5(C(F)(F)F)CC5)n4)nc3Cl)n2)c2ccc(C(=O)O)cc2)CN1, 15-membered ring, K2CO3, NMP, 19.4 mM, 150.0 °C, 18.0 h
  ring closure, yield after HPLC: 40%

## CC1(C)C[C@@H]2CCCNc3cccc(n3)S(=O)(=O)NC(=O)c3cc(Cc4ccccc4)c(F)nc3N1C2
[1]; from CC1(C)C[C@H](CCCNc2cccc(S(=O)(=O)NC(=O)c3cc(Cc4ccccc4)c(F)nc3F)n2)CN1, 15-membered ring, K2CO3, NMP, 71.8 mM, 160.0 °C, 21.5 h, 2 steps
  ring closure, yield after HPLC: 33%

## CCCC1(C)CC2CCCNc3cccc(n3)S(=O)(=O)NC(=O)c3ccc(-n4ccc(OCCC5(C(F)(F)F)CC5)n4)nc3N1C2 (stereo not drawn)
[1]; from CCCC1(C)CC(CCCNc2cccc(S(=O)(=O)NC(=O)c3ccc(-n4ccc(OCCC5(C(F)(F)F)CC5)n4)nc3Cl)n2)CN1, 15-membered ring, K2CO3, NMP, 20.9 mM, 150.0 °C, 16.0 h
  ring closure, yield after HPLC: 28%

## CC1(C)CC2CCC(c3ccccc3)Nc3cccc(n3)S(=O)(=O)NC(=O)c3ccc(-n4ccc(OCCC5(C(F)(F)F)CC5)n4)nc3N1C2 (single isomer, unassigned) [Compound 384, 12,12-Dimethyl-17-phenyl-8-(3-{2-[1-(trifluoromethyl)cyclopropyl]ethoxy}-1H-pyrazol-1-yl)-2λ^6-thia-3,9,11,18,23-pentaazatetracyclo[17.3.1.111,14.05,10]tetracosa-1(22),5,7,9,19(23),20-hexaene-2,2,4-trione]
[2]
  Corrector Assay A % activity: + (+ is <30%)
  EC50: < 1 µM
[3]
  Corrector Assay B % activity: ++ (++ is 30-60%)

## CC1(C)CC2CN1c1nc(-n3ccc(OCCC4(C(F)(F)F)CC4)n3)ccc1C(=O)NS(=O)(=O)c1cccc(n1)NCCC2c1ccccc1 (single isomer, unassigned) [Compound 385, 12,12-dimethyl-15-phenyl-8-(3-{2-[1-(trifluoromethyl)cyclopropyl]ethoxy}-1H-pyrazol-1-yl)-2λ^6-thia-3,9,11,18,23-pentaazatetracyclo[17.3.1.111,14.05,10]tetracosa-1(22),5,7,9,19(23),20-hexaene-2,2,4-trione]
[2]
  Corrector Assay A % activity: ++ (++ is 30-60%)
  EC50: < 1 µM
[3]
  Corrector Assay B % activity: ++ (++ is 30-60%)
  EC50: < 1 µM

## CC1(C)CC2CCC(c3ccccc3)Nc3cccc(n3)S(=O)(=O)NC(=O)c3ccc(-n4ccc(OCCC5(C(F)(F)F)CC5)n4)nc3N1C2 (single isomer, unassigned) [Compound 387, 12,12-Dimethyl-17-phenyl-8-(3-{2-[1-(trifluoromethyl)cyclopropyl]ethoxy}-1H-pyrazol-1-yl)-2λ^6-thia-3,9,11,18,23-pentaazatetracyclo[17.3.1.111,14.05,10]tetracosa-1(22),5,7,9,19(23),20-hexaene-2,2,4-trione]
[2]
  Corrector Assay A % activity: +++ (+++ is >60%)
  EC50: < 1 µM
[3]
  Corrector Assay B % activity: +++ (+++ is >60%)

## CC1(C)CC2CC(c3ccccc3)CNc3cccc(n3)S(=O)(=O)NC(=O)c3ccc(-n4ccc(OCCC5(C(F)(F)F)CC5)n4)nc3N1C2 (single isomer, unassigned) [Compound 389, 12,12-dimethyl-16-phenyl-8-(3-{2-[1-(trifluoromethyl)cyclopropyl]ethoxy}-1H-pyrazol-1-yl)-2λ^6-thia-3,9,11,18,23-pentaazatetracyclo[17.3.1.111,14.05,10]tetracosa-1(22),5,7,9,19(23),20-hexaene-2,2,4-trione]
[2]
  Corrector Assay A % activity: +++ (+++ is >60%)
  EC50: < 1 µM
[3]
  Corrector Assay B % activity: +++ (+++ is >60%)
  EC50: < 1 µM

## CC1(C)CC2CC(c3ccccc3)CNc3cccc(n3)S(=O)(=O)NC(=O)c3ccc(-n4ccc(OCCC5(C(F)(F)F)CC5)n4)nc3N1C2 (single isomer, unassigned) [Compound 391, 12,12-dimethyl-16-phenyl-8-(3-{2-[1-(trifluoromethyl)cyclopropyl]ethoxy}-1H-pyrazol-1-yl)-2λ^6-thia-3,9,11,18,23-pentaazatetracyclo[17.3.1.111,14.05,10]tetracosa-1(22),5,7,9,19(23),20-hexaene-2,2,4-trione]
[2]
  Corrector Assay A % activity: +++ (+++ is >60%)
  EC50: < 1 µM
[3]
  Corrector Assay B % activity: +++ (+++ is >60%)

## CC1(C)CC2CN1c1nc(-n3ccc(OCCC4(C(F)(F)F)CC4)n3)ccc1C(=O)NS(=O)(=O)c1cccc(n1)NCCC2c1ccccc1 (single isomer, unassigned) [Compound 393, 12,12-dimethyl-15-phenyl-8-(3-{2-[1-(trifluoromethyl)cyclopropyl]ethoxy}-1H-pyrazol-1-yl)-2λ^6-thia-3,9,11,18,23-pentaazatetracyclo[17.3.1.111,14.05,10]tetracosa-1(22),5,7,9,19(23),20-hexaene-2,2,4-trione]
[2]
  Corrector Assay A % activity: +++ (+++ is >60%)
  EC50: < 1 µM
[3]
  Corrector Assay B % activity: +++ (+++ is >60%)

## CC(C)(C)c1ccc2c(n1)N1C[C@@H](CCC(c3ccc(Cl)cn3)Nc3cccc(n3)S(=O)(=O)NC2=O)CC1(C)C (single isomer, unassigned; diastereomer 1)
[1]; from CC1(C)C[C@H](CCC(Nc2cccc(S(=O)(=O)NC(=O)c3ccc(C(C)(C)C)nc3F)n2)c2ccc(Cl)cn2)CN1, 15-membered ring, K2CO3/3A MS, NMP, 78.4 mM, 150.0 °C, 4.0 h, 2 steps
  ring closure, yield after HPLC: 39%

From patent US20220313698A1, “MODULATORS OF CYSTIC FIBROSIS TRANSMEMBRANE CONDUCTANCE REGULATOR” (Vertex Pharmaceuticals Incorporated, priority 2019, published 2022)
